Source: the NIST ThermoML archive (doi:10.1021/acs.jced.7b00996)
Numbers after ± are expanded uncertainties.

Conditions: 100 kPa, Liquid; for viscosity: Capillary tube (Ostwald / Ubbelohde) method; for mass density: Vibrating tube method

CCC(C)CO (stereo unspecified) [2-methyl-1-butanol]
viscosity (288.15 K): 6.451 ± 0.13 mPa·s
mass density (288.15 K): 823.02 ± 0.61 kg/m3
viscosity (293.15 K): 5.285 ± 0.11 mPa·s
mass density (293.15 K): 819.56 ± 0.61 kg/m3
viscosity (298.15 K): 4.492 ± 0.093 mPa·s
mass density (298.15 K): 815.82 ± 0.61 kg/m3
viscosity (303.15 K): 3.813 ± 0.079 mPa·s
mass density (303.15 K): 812.03 ± 0.61 kg/m3
viscosity (308.15 K): 3.258 ± 0.068 mPa·s
mass density (308.15 K): 808.2 ± 0.61 kg/m3
viscosity (313.15 K): 2.777 ± 0.058 mPa·s
mass density (313.15 K): 804.33 ± 0.61 kg/m3
viscosity (318.15 K): 2.375 ± 0.049 mPa·s
mass density (318.15 K): 800.39 ± 0.61 kg/m3
viscosity (323.15 K): 2.057 ± 0.043 mPa·s
mass density (323.15 K): 796.39 ± 0.61 kg/m3
viscosity (328.15 K): 1.791 ± 0.037 mPa·s
mass density (328.15 K): 792.34 ± 0.61 kg/m3
viscosity (333.15 K): 1.573 ± 0.033 mPa·s
mass density (333.15 K): 788.2 ± 0.61 kg/m3
viscosity (338.15 K): 1.377 ± 0.029 mPa·s
mass density (338.15 K): 783.84 ± 0.61 kg/m3

CCCCCO [pentan-1-ol]
viscosity (288.15 K): 4.7 ± 0.097 mPa·s
mass density (288.15 K): 818.59 ± 0.61 kg/m3
viscosity (293.15 K): 4.045 ± 0.084 mPa·s
mass density (293.15 K): 814.89 ± 0.61 kg/m3
viscosity (298.15 K): 3.49 ± 0.072 mPa·s
mass density (298.15 K): 811.23 ± 0.61 kg/m3
viscosity (303.15 K): 3.034 ± 0.063 mPa·s
mass density (303.15 K): 807.55 ± 0.61 kg/m3
viscosity (308.15 K): 2.674 ± 0.055 mPa·s
mass density (308.15 K): 803.83 ± 0.61 kg/m3
viscosity (313.15 K): 2.356 ± 0.049 mPa·s
mass density (313.15 K): 800.08 ± 0.61 kg/m3
viscosity (318.15 K): 2.052 ± 0.043 mPa·s
mass density (318.15 K): 796.29 ± 0.61 kg/m3
viscosity (323.15 K): 1.811 ± 0.038 mPa·s
mass density (323.15 K): 792.46 ± 0.61 kg/m3
viscosity (328.15 K): 1.609 ± 0.033 mPa·s
mass density (328.15 K): 788.56 ± 0.61 kg/m3
viscosity (333.15 K): 1.433 ± 0.03 mPa·s
mass density (333.15 K): 784.66 ± 0.61 kg/m3
viscosity (338.15 K): 1.284 ± 0.027 mPa·s
mass density (338.15 K): 780.7 ± 0.61 kg/m3

CCCC(C)O (stereo unspecified) [pentan-2-ol]
viscosity (288.15 K): 5.063 ± 0.11 mPa·s
mass density (288.15 K): 813.55 ± 0.61 kg/m3
viscosity (293.15 K): 4.172 ± 0.087 mPa·s
mass density (293.15 K): 809.59 ± 0.61 kg/m3
viscosity (298.15 K): 3.412 ± 0.071 mPa·s
mass density (298.15 K): 805.55 ± 0.61 kg/m3
viscosity (303.15 K): 2.825 ± 0.059 mPa·s
mass density (303.15 K): 801.44 ± 0.61 kg/m3
viscosity (308.15 K): 2.34 ± 0.049 mPa·s
mass density (308.15 K): 797.25 ± 0.61 kg/m3
viscosity (313.15 K): 1.993 ± 0.041 mPa·s
mass density (313.15 K): 792.98 ± 0.61 kg/m3
viscosity (318.15 K): 1.704 ± 0.035 mPa·s
mass density (318.15 K): 788.63 ± 0.61 kg/m3
viscosity (323.15 K): 1.475 ± 0.031 mPa·s
mass density (323.15 K): 784.19 ± 0.61 kg/m3
viscosity (328.15 K): 1.303 ± 0.027 mPa·s
mass density (328.15 K): 779.67 ± 0.61 kg/m3
viscosity (333.15 K): 1.135 ± 0.024 mPa·s
mass density (333.15 K): 775.07 ± 0.61 kg/m3
viscosity (338.15 K): 1.012 ± 0.021 mPa·s
mass density (338.15 K): 770.37 ± 0.61 kg/m3
